{
  "source": "patent US20240060999A1",
  "about": "“BLOOD COAGULATION INSPECTION METHOD” (FUJIMORI KOGYO CO., LTD, priority 2020, published 2024)",
  "test_system": "whole blood",
  "experiment": "ROTEM whole blood coagulation with rabbit brain-derived tissue thromboplastin (TP) + Ca 12 mM (CTI 20 μg/mL, PKSI-527 40 μM where stated)",
  "format": "cell-based",
  "details": "for prolongation of blood clotting time with rTM by addition of heparan sulfate: reagents (1)-(4), all conditions, heparan sulfate 1 μg/mL",
  "key": {"[1]": {"details": "Ex15, TP 0.033 μg/mL+Ca+CTI+PKSI-527, heparan sulfate 0.3 μg/mL, no rTM"}, "[2]": {"details": "Ex15, TP 0.033 μg/mL+Ca+CTI+PKSI-527, heparan sulfate 0.3 μg/mL, rTM 5 nM"}, "[3]": {"details": "Ex15, TP 0.033 μg/mL+Ca+CTI+PKSI-527, heparan sulfate 0.4 μg/mL, no rTM"}, "[4]": {"details": "Ex15, TP 0.033 μg/mL+Ca+CTI+PKSI-527, heparan sulfate 0.4 μg/mL, rTM 5 nM"}, "[5]": {"details": "Ex15, TP 0.033 μg/mL+Ca+CTI+PKSI-527, heparan sulfate 0.5 μg/mL, no rTM"}, "[6]": {"details": "Ex15, TP 0.033 μg/mL+Ca+CTI+PKSI-527, heparan sulfate 0.5 μg/mL, rTM 5 nM"}, "[7]": {"details": "Ex17, TP 0.011 μg/mL+Ca+CTI+PKSI-527, heparan sulfate 0.2 μg/mL, no rTM"}, "[8]": {"details": "Ex17, TP 0.011 μg/mL+Ca+CTI+PKSI-527, heparan sulfate 0.2 μg/mL, rTM 10 nM"}, "[9]": {"details": "Ex17, TP 0.011 μg/mL+Ca+CTI+PKSI-527, heparan sulfate 0.3 μg/mL, no rTM"}, "[10]": {"details": "Ex17, TP 0.011 μg/mL+Ca+CTI+PKSI-527, heparan sulfate 0.3 μg/mL, rTM 10 nM"}, "[11]": {"details": "Ex17, TP 0.011 μg/mL+Ca+CTI+PKSI-527, heparan sulfate 0.5 μg/mL, no rTM"}, "[12]": {"details": "Ex17, TP 0.011 μg/mL+Ca+CTI+PKSI-527, heparan sulfate 0.5 μg/mL, rTM 10 nM"}, "[13]": {"details": "Ex18, TP 0.0166 μg/mL+Ca+CTI+PKSI-527, heparan sulfate 0.3 μg/mL, no rTM"}, "[14]": {"details": "Ex18, TP 0.0166 μg/mL+Ca+CTI+PKSI-527, heparan sulfate 0.3 μg/mL, rTM 10 nM"}, "[15]": {"details": "Ex18, TP 0.0166 μg/mL+Ca+CTI+PKSI-527, heparan sulfate 0.5 μg/mL, no rTM"}, "[16]": {"details": "Ex18, TP 0.0166 μg/mL+Ca+CTI+PKSI-527, heparan sulfate 0.5 μg/mL, rTM 10 nM"}, "[17]": {"details": "Ex18, TP 0.0166 μg/mL+Ca+CTI+PKSI-527, heparan sulfate 1.0 μg/mL, no rTM"}, "[18]": {"details": "Ex18, TP 0.0166 μg/mL+Ca+CTI+PKSI-527, heparan sulfate 1.0 μg/mL, rTM 10 nM"}},
  "data": [
    {"substance": "Heparan sulfate", "values": [
      {"measurement": "CT (clotting time)", "setting": "Ex15, TP 0.033 μg/mL+Ca+CTI+PKSI-527, heparan sulfate 0.2 μg/mL, rTM 5 nM", "result": 749, "unit": "s"},
      {"measurement": "CFT (clot formation time)", "setting": "[1]", "result": 171, "unit": "s"},
      {"measurement": "CT (clotting time)", "setting": "[1]", "result": 688, "unit": "s"},
      {"measurement": "CFT (clot formation time)", "setting": "[2]", "result": 251, "unit": "s"},
      {"measurement": "CT (clotting time)", "setting": "[2]", "result": 825, "unit": "s"},
      {"measurement": "CFT (clot formation time)", "setting": "[3]", "result": 206, "unit": "s"},
      {"measurement": "CT (clotting time)", "setting": "[3]", "result": 762, "unit": "s"},
      {"measurement": "CFT (clot formation time)", "setting": "[4]", "result": 334, "unit": "s"},
      {"measurement": "CT (clotting time)", "setting": "[4]", "result": 955, "unit": "s"},
      {"measurement": "CFT (clot formation time)", "setting": "[5]", "result": 248, "unit": "s"},
      {"measurement": "CT (clotting time)", "setting": "[5]", "result": 837, "unit": "s"},
      {"measurement": "CFT (clot formation time)", "setting": "[6]", "result": 407, "unit": "s"},
      {"measurement": "CT (clotting time)", "setting": "[6]", "result": 995, "unit": "s"},
      {"measurement": "blood clotting time", "setting": "Ex17, TP 0.011 μg/mL+Ca+CTI+PKSI-527, heparan sulfate 0.2 μg/mL or more, rTM 10 nM", "result": "≥ 1", "unit": "h"},
      {"measurement": "CFT (clot formation time)", "setting": "[7]", "result": 578, "unit": "s"},
      {"measurement": "CT (clotting time)", "setting": "[7]", "result": 1408, "unit": "s"},
      {"measurement": "CFT (clot formation time)", "setting": "[8]", "result": "No CFT"},
      {"measurement": "CT (clotting time)", "setting": "[8]", "result": "No CT"},
      {"measurement": "CFT (clot formation time)", "setting": "[9]", "result": 430, "unit": "s"},
      {"measurement": "CT (clotting time)", "setting": "[9]", "result": 1630, "unit": "s"},
      {"measurement": "CFT (clot formation time)", "setting": "[10]", "result": "No CFT"},
      {"measurement": "CT (clotting time)", "setting": "[10]", "result": "No CT"},
      {"measurement": "CFT (clot formation time)", "setting": "[11]", "result": 386, "unit": "s"},
      {"measurement": "CT (clotting time)", "setting": "[11]", "result": 1178, "unit": "s"},
      {"measurement": "CFT (clot formation time)", "setting": "[12]", "result": "No CFT"},
      {"measurement": "CT (clotting time)", "setting": "[12]", "result": "No CT"},
      {"measurement": "CFT (clot formation time)", "setting": "[13]", "result": 256, "unit": "s"},
      {"measurement": "CT (clotting time)", "setting": "[13]", "result": 1035, "unit": "s"},
      {"measurement": "CFT (clot formation time)", "setting": "[14]", "result": 292.0, "unit": "s"},
      {"measurement": "CT (clotting time)", "setting": "[14]", "result": 904, "unit": "s"},
      {"measurement": "CFT (clot formation time)", "setting": "[15]", "result": 407, "unit": "s"},
      {"measurement": "CT (clotting time)", "setting": "[15]", "result": 1162, "unit": "s"},
      {"measurement": "CFT (clot formation time)", "setting": "[16]", "result": 742.0, "unit": "s"},
      {"measurement": "CT (clotting time)", "setting": "[16]", "result": 1064, "unit": "s"},
      {"measurement": "CFT (clot formation time)", "setting": "[17]", "result": "No CT"},
      {"measurement": "CT (clotting time)", "setting": "[17]", "result": 1999, "unit": "s"},
      {"measurement": "CFT (clot formation time)", "setting": "[18]", "result": "No CFT"},
      {"measurement": "CT (clotting time)", "setting": "[18]", "result": "No CT"},
      {"measurement": "blood clotting time", "setting": "[18]", "result": "≥ 1", "unit": "h"},
      {"measurement": "CT (clotting time)", "setting": "Ex30, reagent (1): TP 0.664 μg/mL+heparan sulfate 1 μg/mL+Ca, no rTM", "result": 220, "unit": "s"},
      {"measurement": "CT (clotting time)", "setting": "Ex30, reagent (1): TP 0.664 μg/mL+heparan sulfate 1 μg/mL+Ca, rTM 25 nM", "result": 533, "unit": "s"},
      {"measurement": "CT (clotting time)", "setting": "Ex30, reagent (1): TP 0.664 μg/mL+heparan sulfate 1 μg/mL+Ca, rTM 25 nM+APC inhibitory aptamer 1 μM", "result": 260, "unit": "s"},
      {"measurement": "CT (clotting time)", "setting": "Ex30, reagent (2): TP 0.664 μg/mL+heparan sulfate 1 μg/mL+Ca+CTI, no rTM", "result": 214, "unit": "s"},
      {"measurement": "CT (clotting time)", "setting": "Ex30, reagent (2): TP 0.664 μg/mL+heparan sulfate 1 μg/mL+Ca+CTI, rTM 25 nM", "result": 448, "unit": "s"},
      {"measurement": "CT (clotting time)", "setting": "Ex30, reagent (2): TP 0.664 μg/mL+heparan sulfate 1 μg/mL+Ca+CTI, rTM 25 nM+APC inhibitory aptamer 1 μM", "result": 287, "unit": "s"},
      {"measurement": "CT (clotting time)", "setting": "Ex30, reagent (3): TP 0.664 μg/mL+heparan sulfate 1 μg/mL+Ca+PKSI-527, no rTM", "result": 220, "unit": "s"},
      {"measurement": "CT (clotting time)", "setting": "Ex30, reagent (3): TP 0.664 μg/mL+heparan sulfate 1 μg/mL+Ca+PKSI-527, rTM 25 nM", "result": 444, "unit": "s"},
      {"measurement": "CT (clotting time)", "setting": "Ex30, reagent (3): TP 0.664 μg/mL+heparan sulfate 1 μg/mL+Ca+PKSI-527, rTM 25 nM+APC inhibitory aptamer 1 μM", "result": 291, "unit": "s"},
      {"measurement": "CT (clotting time)", "setting": "Ex30, reagent (4): TP 0.664 μg/mL+heparan sulfate 1 μg/mL+Ca+CTI+PKSI-527, no rTM", "result": 226, "unit": "s"},
      {"measurement": "CT (clotting time)", "setting": "Ex30, reagent (4): TP 0.664 μg/mL+heparan sulfate 1 μg/mL+Ca+CTI+PKSI-527, rTM 25 nM", "result": 440, "unit": "s"},
      {"measurement": "CT (clotting time)", "setting": "Ex30, reagent (4): TP 0.664 μg/mL+heparan sulfate 1 μg/mL+Ca+CTI+PKSI-527, rTM 25 nM+APC inhibitory aptamer 1 μM", "result": 319, "unit": "s"},
      {"measurement": "prolongation of blood clotting time with rTM by addition of heparan sulfate", "setting": "Ex30, rTM 25 nM", "result": "markedly prolonged"},
      {"measurement": "CT (clotting time)", "setting": "Ex31, reagent (1): TP 0.664 μg/mL+heparan sulfate 1 μg/mL+Ca, no rTM", "result": 220, "unit": "s"},
      {"measurement": "CT (clotting time)", "setting": "Ex31, reagent (1): TP 0.664 μg/mL+heparan sulfate 1 μg/mL+Ca, rTM 30 nM", "result": 766, "unit": "s"},
      {"measurement": "CT (clotting time)", "setting": "Ex31, reagent (1): TP 0.664 μg/mL+heparan sulfate 1 μg/mL+Ca, rTM 30 nM+APC inhibitory aptamer 1 μM", "result": 301, "unit": "s"},
      {"measurement": "CT (clotting time)", "setting": "Ex31, reagent (2): TP 0.664 μg/mL+heparan sulfate 1 μg/mL+Ca+CTI, no rTM", "result": 214, "unit": "s"},
      {"measurement": "CT (clotting time)", "setting": "Ex31, reagent (2): TP 0.664 μg/mL+heparan sulfate 1 μg/mL+Ca+CTI, rTM 30 nM", "result": 613, "unit": "s"},
      {"measurement": "CT (clotting time)", "setting": "Ex31, reagent (2): TP 0.664 μg/mL+heparan sulfate 1 μg/mL+Ca+CTI, rTM 30 nM+APC inhibitory aptamer 1 μM", "result": 286, "unit": "s"},
      {"measurement": "CT (clotting time)", "setting": "Ex31, reagent (3): TP 0.664 μg/mL+heparan sulfate 1 μg/mL+Ca+PKSI-527, no rTM", "result": 220, "unit": "s"},
      {"measurement": "CT (clotting time)", "setting": "Ex31, reagent (3): TP 0.664 μg/mL+heparan sulfate 1 μg/mL+Ca+PKSI-527, rTM 30 nM", "result": 517, "unit": "s"},
      {"measurement": "CT (clotting time)", "setting": "Ex31, reagent (3): TP 0.664 μg/mL+heparan sulfate 1 μg/mL+Ca+PKSI-527, rTM 30 nM+APC inhibitory aptamer 1 μM", "result": 297, "unit": "s"},
      {"measurement": "CT (clotting time)", "setting": "Ex31, reagent (4): TP 0.664 μg/mL+heparan sulfate 1 μg/mL+Ca+CTI+PKSI-527, no rTM", "result": 226, "unit": "s"},
      {"measurement": "CT (clotting time)", "setting": "Ex31, reagent (4): TP 0.664 μg/mL+heparan sulfate 1 μg/mL+Ca+CTI+PKSI-527, rTM 30 nM", "result": 557, "unit": "s"},
      {"measurement": "CT (clotting time)", "setting": "Ex31, reagent (4): TP 0.664 μg/mL+heparan sulfate 1 μg/mL+Ca+CTI+PKSI-527, rTM 30 nM+APC inhibitory aptamer 1 μM", "result": 307, "unit": "s"},
      {"measurement": "prolongation of blood clotting time with rTM by addition of heparan sulfate", "setting": "Ex31, rTM 30 nM", "result": "markedly prolonged"}
    ]}
  ]
}
